Where two headings read alike, the source gives them in different places.
What was measured:
P. falciparum 3D7 = test: In vitro antiplasmodial pLDH assay, chloroquine-sensitive strain 3D7; assay type: cell-based; settings: Plasmodium falciparum, read-out: IC50 against 3D7
Experimental: (§1) The parasites were continuously cultured in vitro according to the method described by Trager and Jensen but with modifications. The cultures were maintained at 37 °C in O-positive (O^+) human erythrocytes in complete culture medium, which contained RPMI 1640 (Gibco-BRL Laboratories) growth medium supplemented with 25 mM 4-(2-hydroxyethyl)piperazine-1-ethanesulfonic acid (HEPES) (Sigma-Aldrich Chemical Company) buffer, 22 mM glucose (Sigma), 5 g/l albumax (Gibco-BRL Laboratories), 25 mM sodium carbonate (Sigma) and 0.3 mM hypoxanthine (Sigma). In order to control microbial contamination […] gentamicin (Sigma) was added to the culture medium, and to obtain a loosely synchronous ring stage, 5 % sterile aqueous D-sorbitol (Sigma) was used. The antiplasmodial assay was initiated with the parasites in the trophozoite stage and with a parasitaemia and haematocrit of 2 %.
(§2) Non-parasitized erythrocytes were used as a negative control and parasitized erythrocytes, without any test compound, were used as positive control. A full day dose–response was performed for all compounds to determine the concentration inhibiting 50 % of parasite growth (IC50 value). The plates were incubated for 48 h at 37 °C in a gassing chamber containing a mixture of 5 % CO2, 3 % O2 and 92 % […]. In order to quantify parasite viability and to determine the effect of the compounds on the parasite, a parasite lactate dehydrogenase (pLDH) assay was used as described by Makler et al., but with modifications.

P. falciparum D10 = test: In vitro antiplasmodial pLDH assay, chloroquine-sensitive strain D10; assay type: cell-based; settings: Plasmodium falciparum, read-out: IC50 against D10
Experimental: as §1, §2

P. falciparum K1 = test: In vitro antiplasmodial pLDH assay, chloroquine-resistant strain K1; assay type: cell-based; settings: Plasmodium falciparum, read-out: IC50 against K1
Experimental: as §1, §2

P. falciparum Dd2 = test: In vitro antiplasmodial pLDH assay, chloroquine-resistant strain Dd2; assay type: cell-based; settings: Plasmodium falciparum, read-out: IC50 against Dd2
Experimental: as §1, §2

[1] = system: Plasmodium berghei (ANKA strain); test: In vivo anti-malarial efficacy, Peters' 4-day test; parameters: species or system C57BL/6 mice; settings: for % reduction of parasitemia Day 9: vs placebo
Experimental: The chloroquine-sensitive Plasmodium berghei (ANKA strain) was used to assess in vivo anti-malarial efficacy of the test compounds. The parasites were maintained in a C57BL/6 mouse by inoculation with 250 µl of a 1:1 (v/v) suspension of erythrocytes infected with P. berghei in phosphate buffered saline (PBS). On the day of the experiment the host mouse was anaesthetized intraperitoneally with a mixture of ketamine (120 mg/kg) and xylazine (16 mg/kg). Whole blood from the host mouse was drawn by cardiac puncture into a Vacuette® heparin tube and a suspension of P. berghei parasitized erythrocytes (1 × 10^7) in PBS was prepared and the test mice were infected with 200 µl of this suspension intraperitoneally.
Evaluation of the curative potential of the test compounds was performed using Peters’ 4-day test as described. The mice were dosed orally at 20 and 40 mg/kg and intravenously at 4 and 8 mg/kg 2 h post-infection and for three consecutive days (D0 to D3). On the first day (D0), blood samples were collected serially from each mouse at 0.5, 1, 3, and 7 h post-dosing in order to provide quantitative measurements of drug exposure which is needed for the sound interpretation of the efficacy of the anti-malarials. […] The mice were also dosed orally with PBS as a control. The parasitaemia was determined from the […] (D4) by preparing thin blood films from the tail of each mouse and the smears were fixed with methanol and stained with Giemsa. This was repeated every 2–3 days to monitor the efficacy of the test compounds. The formula used to calculate % parasitaemia and % reduction is described below, respectively. The data for % parasitaemia and % reduction of parasitaemia is presented in Table 4. %Parasitaemia =No.ofparasitizedRBCoutof500erythrocytes/Totalno.ofRBCcounted×100 %Reduction =Parasitamiaofplacebo-Parasitamiaoftestcompound/Parasitamiaofplacebo×100

[2] = parameters: method as in earlier work; settings: mice; ref 25 (Salako); cited from earlier work
[3] = system: P. falciparum chloroquine-sensitive and -resistant strains; assay type: cell-based, Plasmodium falciparum; settings: highest CQR IC50 value / lowest CQS IC50 value
Text: This value provides a quantitative measurement of the antiplasmodial activity against CQR strains relative to that against CQS strains. The higher the RI value, the higher the level of resistance.

[4] = Pharmacokinetic study in uninfected C57BL/6 mice (LC-MS/MS of blood); assay type: in vivo; settings: for clearance / Vd: iv; for Vd: read-out: Vss; for AUC(0-inf) / half-life: mouse; for blood levels after oral dosing: oral 20 mg/kg, uninfected mice
Experimental: A comprehensive pharmacokinetic (PK) study of compound 1 and 2 was performed on 10-week old male and female C57BL/6 mice (20–30 g) obtained from the University of Cape Town Medical School Animal Unit. The mice were housed in ventilated cages at room temperature (approximately 22 °C) with constant supply of food and water and were monitored twice daily. The study was authorized by the Faculty of Health Science Animal Research Ethics Committee before commencement: Reference No. 012/020. All the work was performed according to the guidelines established by Austin et al.. […] In each experiment a group of five animals were dosed orally (10 ml/kg) at 20 mg/kg and intravenously (5 ml/kg) via the dorsal penile vein at 4 mg/kg under anaesthesia. For oral dosage, a gavage needle was used for the administration of test compounds directly into the lower oesophagus or stomach. […] Lithium heparin-coated MiniCollect® Plasma Tubes (Lasec, South Africa) were used to collect the blood samples. The collected blood samples were placed on ice immediately after sampling, and were frozen at −80 °C until analysis. The blood samples stored at −80 °C were thawed at room temperature and then mixed by vortex to ensure homogeneity. Twenty µl of blood was mixed with 50 µl Milli-Q water (Millipore, USA) and 150 µl acetonitrile (Merck). The mixture was vortexed for 15 s, sonicated for 10 min and centrifuged at 13,000g for 5 min. The supernatant was transferred to a flat-bottomed glass insert and placed in a glass vial and placed in the autosampler for analysis. A liquid chromatography–mass spectrometry (LC/MS/MS) system was employed for the quantification of the compounds in mouse blood. The LC system employed was an ultra-fast liquid chromatography (UFLC) system (Shimadzu) and the separation of the compounds was performed on a Phenomenex, Luna 5 μm PFP (2), 100 Å, 50 mm × 2 mm analytical column. The mobile phase A consisted of 0.1 % formic acid in water (v/v) and mobile phase B consisted of acetonitrile. The flow rate was set at 500 µl/min and the temperature of the column was maintained at 40 °C. […] The detection of the compounds was performed on an AB Sciex 3200 Q-Trap mass spectrometer which was operated at unit resolution in the multiple reaction monitoring (MRM) mode. The calibration range for all the compounds was between 7.8 and 1000 ng/ml and the accuracy (% Nom) for the calibration curves was between 90.3 and 104.0 %. […] Non-compartmental analysis was performed on each individual set of data using PK Solutions 2.0 Pharmacokinetic Analysis Software (Summit Research Services, Montrose, USA). The following PK parameters were calculated: apparent terminal half-life [t½ (min)], total exposure [AUC0–α (µM min)], volume of distribution (l/kg) and plasma clearance [CL (l/min/kg)].

[5] = Drug exposure in P. berghei-infected mice (blood concentrations on D0); assay type: in vivo, C57BL/6 mice; settings: oral 20 and 40 mg/kg
[6] = Toxicity observed in dosed mice; assay type: in vivo; settings: dosed orally and intravenously
Experimental: They both presented poor PK properties following oral administration. However, the LC–MS/MS assay only detected the parent compound and no assays were conducted to measure or identify any possible metabolites. The decision to perform efficacy studies was based on the possibility that compounds 1 and 2 may have high first pass effect which may cause low bioavailability. After the infected mice were dosed orally and intravenously with compound 1 and 2, the blood concentrations were measured in P. berghei-infected mice at different time intervals to measure the exposure of the infected mice to the drug. […] High toxicity was also detected when dosed orally and intravenously. The PK studies were only conducted for 9 h, and therefore the symptoms of toxicity were not severe. However, with efficacy studies the mice are dosed every day for 4 days, and this might cause distress to the mice because the toxic effect of the drug will be more severe. The efficacy study for compound 2 is not reported in this paper.

[7] = Oral 10 mg/kg/day, 4 days (reference drug)
[8] = chloroquine-sensitive strain 3D7, 48 h, pLDH, mean of three independent experiments
[9] = chloroquine-sensitive strain D10, 48 h, pLDH, mean of three independent experiments
[10] = chloroquine-resistant strain K1, 48 h, pLDH, mean of three independent experiments
[11] = chloroquine-resistant strain Dd2, 48 h, pLDH, mean of three independent experiments
[12] = both sexes, C57BL/6, mouse, whole blood, 4 mg/kg, intravenous 4 mg/kg, uninfected C57BL/6 mice, blood
[13] = both sexes, whole blood, intravenous 4 mg/kg, uninfected C57BL/6 mice, blood
[14] = intravenous 4 mg/kg, uninfected C57BL/6 mice, blood, 4 mg/kg

`CCN(CC)CCCC(C)Nc1ccnc2cc(Cl)ccc12` (stereo not drawn) [Chloroquine, reference compound] gave an IC50 (P. falciparum 3D7; 3D7, 48 h) of 19 nM, an IC50 (P. falciparum D10; D10, 48 h) of 23 nM and an IC50 (P. falciparum K1; K1, 48 h) of 279 ± 2 nM. For the same molecule, the IC50 (P. falciparum Dd2; DD2, 48 h) was 180 ± 10 nM, the “Average % parasitemia Day 4” value [1, 7] was 0% and the “Average % parasitemia Day 6” value [1, 7] was 0%. For the same molecule, the “Average % parasitemia Day 9” value [1, 7] was 2 ± 1.6%, the “% reduction of parasitemia Day 9” value [1, 7] was 92.0 ± 0.4% and the half-life [2] was 7 h. For the same molecule, the oral bioavailability [2] was 79–90%.

Molecule `O=c1cc(CNCCCCCCNc2ccnc3cc(Cl)ccc23)n(C2CC2)cc1OCc1ccccc1` [Compound 1] has an IC50 (P. falciparum 3D7; [8]) of 64 ± 20 nM, an IC50 (P. falciparum D10; [9]) of 47 ± 10 nM and an IC50 (P. falciparum K1; [10]) of 505 ± 100 nM. The IC50 (P. falciparum Dd2; [11]) was 463 ± 120 nM, the “RI (resistance index)” value [3] was 10.7 and the clearance [4, 12] was 28 mL/min/kg. The Vd [4, 12] was 20 L/kg, the concentration at 9 h ([4]; both sexes, C57BL/6, mouse, whole blood, intravenous 4 mg/kg, 9 h post-dosing, read-out: blood level after 9 h) was 160 nM and the AUC(0-inf) [4, 13] was 3.27 µM·h. It also gave a half-life [4, 13] of 4.3 ± 1.02 h, a CL [4, 14] of 27.6 ± 8 mL/min/kg and a Vss [4, 14] of 20.1 ± 6 L/kg. For the same molecule, the oral bioavailability ([4]; mice, oral dosing, in words) was “poor oral bioavailability”, the “blood levels after oral dosing” value [4] was “below the LOQ” and the “blood concentration levels in infected mice dosed orally” value [5] was “below the detection level”. The “Average % parasitemia Day 4” value ([1]; IV 4 mg/kg/day, 4 days) was 0.4 ± 0.4%, the “Average % parasitemia Day 6” value ([1]; IV 4 mg/kg/day, 4 days) was 1.8 ± 1.4% and the “Average % parasitemia Day 9” value ([1]; IV 4 mg/kg/day, 4 days) was 8.1 ± 5%. The “% reduction of parasitemia Day 9” value ([1]; IV 4 mg/kg/day, 4 days, 4 mg/kg/day) was 61.9 ± 26%, the “% reduction of parasitemia Day 9” value ([1]; IV 4 mg/kg/day, 4 days, listed as compound 1, 4 mg/kg/day) was 62% and the “Average % parasitemia Day 4” value ([1]; IV 8 mg/kg/day, 4 days) was 0%. The “Average % parasitemia Day 6” value ([1]; IV 8 mg/kg/day, 4 days) was 0.9 ± 0.9%, the “Average % parasitemia Day 9” value ([1]; IV 8 mg/kg/day, 4 days) was 5.1 ± 1.7% and the “% reduction of parasitemia Day 9” value ([1]; IV 8 mg/kg/day, 4 days, 8 mg/kg/day) was 82.9 ± 2.5%. For the same molecule, the “% reduction of parasitemia Day 9” value ([1]; IV 8 mg/kg/day, 4 days, listed as compound 1, 8 mg/kg/day) was 83%, the “Average % parasitemia Day 4” value ([1]; Oral 20 mg/kg/day, 4 days) was 5.3 ± 3.9% and the “Average % parasitemia Day 6” value ([1]; Oral 20 mg/kg/day, 4 days) was 22.7 ± 10%. For the same molecule, the “Average % parasitemia Day 9” value ([1]; Oral 20 mg/kg/day, 4 days) was 24.2 ± 5.6%, the “% reduction of parasitemia Day 9” value ([1]; Oral 20 mg/kg/day, 4 days) was 3.7 ± 5.6% and the “Average % parasitemia Day 4” value ([1]; Oral 40 mg/kg/day, 4 days) was 5.9 ± 2%. The “Average % parasitemia Day 6” value ([1]; Oral 40 mg/kg/day, 4 days) was 10.7 ± 5%, the “Average % parasitemia Day 9” value ([1]; Oral 40 mg/kg/day, 4 days) was 48.6 ± 12% and the “% reduction of parasitemia Day 9” value ([1]; Oral 40 mg/kg/day, 4 days) was −93.8 ± 49.3%. For the same molecule, the “parasitaemia on day 4 in mice dosed orally” value ([1]; oral groups (20 and 40 mg/kg/day), day 4) was about 5%.

With `CCc1c(OCc2ccccc2)c(=O)ccn1CCCCCCNc1ccnc2cc(Cl)ccc12` [Compound 2] the IC50 (P. falciparum 3D7; [8]) was 41 ± 20 nM, the IC50 (P. falciparum D10; [9]) was 122 ± 30 nM and the IC50 (P. falciparum K1; [10]) was 89 ± 10 nM. The IC50 (P. falciparum Dd2; [11]) was 76 ± 10 nM, the “RI (resistance index)” value [3] was 2.2 and the clearance [4, 12] was 366 ± 46.6 mL/min/kg. For the same molecule, the Vd [4, 12] was 154.1 ± 1 L/kg, the concentration at 2 h ([4]; both sexes, C57BL/6, mouse, whole blood, intravenous 4 mg/kg, 2 h post-dosing, read-out: blood level after 2 h) was 30 nM and the AUC(0-inf) [4, 13] was 0.42 µM·h. For the same molecule, the half-life [4, 13] was 0.7 ± 0.2 h, the “blood levels after oral dosing” value [4] was “below the LOQ” and the “blood concentration levels in infected mice dosed orally” value [5] was “below the detection level”. The toxicity [6] was “High toxicity”.

Reference: article PMC4681141, “Antiplasmodial activity, in vivo pharmacokinetics and anti-malarial efficacy evaluation of hydroxypyridinone hybrids in a mouse model” (Malaria Journal, 2015)
